What was measured:
Test in all cases: Kinase selectivity, scanMAX Kinase assay panel (DiscoverX), % control at 1 uM
Format in all cases: binding
[1] = target: T1, scanMAX Kinase assay panel (Homo sapiens, UniProt O43683); details: BUB1; 1 uM; read-out: Percent Control (%)
T1 construct: purchased DiscoverX
Method in brief: (§1)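 Read-out is percent of control, derived from the signal with compound relative to positive and negative controls: (compound − positive)/(negative − positive) × 100. Each enzyme received test drug at 1 uM in DMSO, and values under 35% count as active.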

[2] = target: T2, scanMAX Kinase assay panel (Homo sapiens, UniProt Q8TDC3); details: BRSK1; 1 uM; read-out: Percent Control (%)
T2 construct: purchased DiscoverX
T2 sequence (Q8TDC3 1-778): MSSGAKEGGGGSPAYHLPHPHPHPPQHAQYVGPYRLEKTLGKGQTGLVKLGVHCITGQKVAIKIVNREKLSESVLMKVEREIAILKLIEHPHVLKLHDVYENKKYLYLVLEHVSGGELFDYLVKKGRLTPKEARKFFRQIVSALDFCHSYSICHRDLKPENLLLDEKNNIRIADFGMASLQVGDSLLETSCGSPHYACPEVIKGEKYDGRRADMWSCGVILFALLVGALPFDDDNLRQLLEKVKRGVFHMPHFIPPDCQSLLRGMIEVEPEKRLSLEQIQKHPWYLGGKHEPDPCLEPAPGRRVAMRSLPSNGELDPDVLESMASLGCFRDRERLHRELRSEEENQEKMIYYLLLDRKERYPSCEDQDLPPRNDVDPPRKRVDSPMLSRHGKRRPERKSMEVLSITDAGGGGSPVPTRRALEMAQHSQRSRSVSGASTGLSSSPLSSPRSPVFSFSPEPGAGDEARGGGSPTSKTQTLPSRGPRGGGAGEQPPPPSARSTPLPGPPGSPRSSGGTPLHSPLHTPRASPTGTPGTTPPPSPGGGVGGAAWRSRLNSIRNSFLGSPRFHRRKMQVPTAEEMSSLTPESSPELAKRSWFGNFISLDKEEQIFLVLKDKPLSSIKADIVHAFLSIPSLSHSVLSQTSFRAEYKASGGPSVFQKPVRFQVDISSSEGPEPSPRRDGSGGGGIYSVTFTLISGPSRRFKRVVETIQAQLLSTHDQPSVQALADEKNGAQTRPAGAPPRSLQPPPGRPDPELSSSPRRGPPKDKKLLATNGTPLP
Method in brief: as §1

[3] = target: T3, scanMAX Kinase assay panel (Homo sapiens, UniProt Q9BYP7); details: WNK3; 1 uM; read-out: Percent Control (%)
T3 construct: purchased DiscoverX
Method in brief: as §1

[4] = target: T4, scanMAX Kinase assay panel (Homo sapiens, UniProt P04629); details: TRKA; 1 uM; read-out: Percent Control (%)
T4 construct: purchased DiscoverX
Method in brief: as §1

[5] = target: T5, scanMAX Kinase assay panel (Homo sapiens, UniProt P17948); details: FLT1; 1 uM; read-out: Percent Control (%)
T5 construct: purchased DiscoverX
Method in brief: as §1

[6] = target: T6, scanMAX Kinase assay panel (Homo sapiens, UniProt O75914); details: PAK3; 1 uM; read-out: Percent Control (%)
T6 construct: purchased DiscoverX
Method in brief: as §1

[7] = target: T7, scanMAX Kinase assay panel (Homo sapiens, UniProt Q96BR1); details: SGK3; 1 uM; read-out: Percent Control (%)
T7 construct: purchased DiscoverX
T7 sequence (Q96BR1 1-496): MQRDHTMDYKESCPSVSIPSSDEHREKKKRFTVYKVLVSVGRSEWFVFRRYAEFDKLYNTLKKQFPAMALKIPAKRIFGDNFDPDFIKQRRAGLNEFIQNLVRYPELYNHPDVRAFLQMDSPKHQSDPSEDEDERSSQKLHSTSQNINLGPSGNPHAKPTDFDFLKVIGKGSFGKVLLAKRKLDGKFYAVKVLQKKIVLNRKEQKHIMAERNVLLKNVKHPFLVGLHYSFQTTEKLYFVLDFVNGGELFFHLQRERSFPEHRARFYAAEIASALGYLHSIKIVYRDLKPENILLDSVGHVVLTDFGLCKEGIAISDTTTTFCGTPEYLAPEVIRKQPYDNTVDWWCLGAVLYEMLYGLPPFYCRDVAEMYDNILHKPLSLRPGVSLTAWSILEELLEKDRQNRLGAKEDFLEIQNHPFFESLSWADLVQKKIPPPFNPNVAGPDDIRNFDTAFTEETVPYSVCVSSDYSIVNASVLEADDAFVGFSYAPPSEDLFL
Method in brief: as §1

[8] = target: T8, scanMAX Kinase assay panel (Homo sapiens, UniProt Q9BX84); details: TRPM6; 1 uM; read-out: Percent Control (%)
T8 construct: purchased DiscoverX
Method in brief: as §1

[9] = target: T9, scanMAX Kinase assay panel (Homo sapiens, UniProt P42684); details: ABL2; 1 uM; read-out: Percent Control (%)
T9 construct: purchased DiscoverX
Method in brief: as §1

[10] = target: T10, scanMAX Kinase assay panel (Homo sapiens, UniProt P09619); details: PDGFRB; 1 uM; read-out: Percent Control (%)
T10 construct: purchased DiscoverX
Method in brief: as §1

[11] = target: T11, scanMAX Kinase assay panel (Homo sapiens, UniProt O94768); details: DRAK2; 1 uM; read-out: Percent Control (%)
T11 construct: purchased DiscoverX
T11 sequence (O94768 1-372): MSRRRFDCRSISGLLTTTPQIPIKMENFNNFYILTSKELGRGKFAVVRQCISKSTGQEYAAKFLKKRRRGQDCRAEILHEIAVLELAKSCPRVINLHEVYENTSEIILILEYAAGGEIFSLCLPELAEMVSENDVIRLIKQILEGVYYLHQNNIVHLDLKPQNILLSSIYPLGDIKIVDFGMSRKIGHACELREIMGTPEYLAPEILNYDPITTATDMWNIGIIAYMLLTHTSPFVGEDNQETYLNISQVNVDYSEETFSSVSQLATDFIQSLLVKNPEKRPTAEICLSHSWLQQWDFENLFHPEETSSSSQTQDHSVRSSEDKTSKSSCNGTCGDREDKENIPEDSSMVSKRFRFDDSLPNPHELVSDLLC
Method in brief: as §1

[12] = target: T12, scanMAX Kinase assay panel (Homo sapiens, UniProt P00519, Y253F); details: ABL1 (Y253F)-phosphorylated; 1 uM; read-out: Percent Control (%)
T12 construct: purchased DiscoverX
Method in brief: as §1

T9 sequence (P42684 whole entry): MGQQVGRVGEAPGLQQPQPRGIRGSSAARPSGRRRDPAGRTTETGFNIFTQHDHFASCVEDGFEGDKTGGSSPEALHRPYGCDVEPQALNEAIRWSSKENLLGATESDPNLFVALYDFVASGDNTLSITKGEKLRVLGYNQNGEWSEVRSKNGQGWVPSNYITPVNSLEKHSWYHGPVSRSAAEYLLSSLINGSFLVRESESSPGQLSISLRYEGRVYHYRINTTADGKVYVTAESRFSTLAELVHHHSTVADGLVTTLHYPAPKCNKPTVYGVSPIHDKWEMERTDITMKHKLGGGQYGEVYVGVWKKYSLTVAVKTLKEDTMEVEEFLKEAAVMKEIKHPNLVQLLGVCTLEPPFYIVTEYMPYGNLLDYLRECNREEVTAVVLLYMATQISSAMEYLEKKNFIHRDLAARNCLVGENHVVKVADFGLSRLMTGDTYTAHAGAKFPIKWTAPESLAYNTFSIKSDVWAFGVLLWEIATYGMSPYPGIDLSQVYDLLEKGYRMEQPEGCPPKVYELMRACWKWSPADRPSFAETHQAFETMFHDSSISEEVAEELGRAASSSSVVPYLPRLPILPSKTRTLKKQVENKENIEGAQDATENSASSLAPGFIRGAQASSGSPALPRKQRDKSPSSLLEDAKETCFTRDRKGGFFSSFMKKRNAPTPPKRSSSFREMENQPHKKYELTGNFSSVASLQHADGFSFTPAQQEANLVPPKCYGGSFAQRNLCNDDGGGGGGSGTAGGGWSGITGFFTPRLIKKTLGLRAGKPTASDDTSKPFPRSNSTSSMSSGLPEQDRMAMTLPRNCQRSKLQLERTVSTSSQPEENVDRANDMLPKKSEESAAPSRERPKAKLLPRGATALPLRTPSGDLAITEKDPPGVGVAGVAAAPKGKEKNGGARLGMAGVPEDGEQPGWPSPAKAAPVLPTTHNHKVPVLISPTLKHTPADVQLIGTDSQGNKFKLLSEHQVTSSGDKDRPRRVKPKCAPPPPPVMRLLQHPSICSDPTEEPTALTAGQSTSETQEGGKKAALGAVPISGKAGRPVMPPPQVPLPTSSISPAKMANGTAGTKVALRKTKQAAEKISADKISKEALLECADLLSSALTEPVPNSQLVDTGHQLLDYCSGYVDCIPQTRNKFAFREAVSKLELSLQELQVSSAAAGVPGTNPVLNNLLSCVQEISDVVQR
T5 sequence (P17948 27-1338): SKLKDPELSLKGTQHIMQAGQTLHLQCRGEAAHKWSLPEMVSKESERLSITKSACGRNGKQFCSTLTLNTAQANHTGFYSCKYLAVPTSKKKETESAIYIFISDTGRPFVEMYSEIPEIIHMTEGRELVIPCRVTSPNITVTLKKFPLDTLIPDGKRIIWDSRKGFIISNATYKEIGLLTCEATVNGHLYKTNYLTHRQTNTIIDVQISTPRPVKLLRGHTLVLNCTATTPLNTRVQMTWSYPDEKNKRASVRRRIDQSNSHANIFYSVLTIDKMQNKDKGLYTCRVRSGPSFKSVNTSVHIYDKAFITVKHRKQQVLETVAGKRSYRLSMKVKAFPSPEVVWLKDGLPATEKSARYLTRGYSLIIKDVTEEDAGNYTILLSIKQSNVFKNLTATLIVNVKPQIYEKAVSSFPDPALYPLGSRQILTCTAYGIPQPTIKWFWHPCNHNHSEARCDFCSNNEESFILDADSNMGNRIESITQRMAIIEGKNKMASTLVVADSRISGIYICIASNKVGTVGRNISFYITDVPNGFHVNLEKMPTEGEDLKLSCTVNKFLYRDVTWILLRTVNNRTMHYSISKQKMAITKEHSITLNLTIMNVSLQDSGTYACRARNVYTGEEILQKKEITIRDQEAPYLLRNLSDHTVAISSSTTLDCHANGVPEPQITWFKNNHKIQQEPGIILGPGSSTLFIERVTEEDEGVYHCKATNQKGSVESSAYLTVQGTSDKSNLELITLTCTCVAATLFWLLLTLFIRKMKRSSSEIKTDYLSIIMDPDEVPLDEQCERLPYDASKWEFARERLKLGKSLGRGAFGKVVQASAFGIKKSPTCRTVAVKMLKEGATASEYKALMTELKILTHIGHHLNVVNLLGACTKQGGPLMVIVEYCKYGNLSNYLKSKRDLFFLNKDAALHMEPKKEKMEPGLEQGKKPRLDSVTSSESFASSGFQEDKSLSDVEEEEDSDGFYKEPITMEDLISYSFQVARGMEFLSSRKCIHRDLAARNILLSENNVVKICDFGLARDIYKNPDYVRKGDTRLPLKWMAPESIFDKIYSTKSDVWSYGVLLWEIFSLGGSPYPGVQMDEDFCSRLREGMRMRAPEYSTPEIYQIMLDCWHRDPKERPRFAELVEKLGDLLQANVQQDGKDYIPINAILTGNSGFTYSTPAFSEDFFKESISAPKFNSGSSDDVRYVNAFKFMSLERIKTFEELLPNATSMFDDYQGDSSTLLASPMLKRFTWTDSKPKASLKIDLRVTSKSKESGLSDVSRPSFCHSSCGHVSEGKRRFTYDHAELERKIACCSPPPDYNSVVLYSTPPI
T10 sequence (P09619 33-1106): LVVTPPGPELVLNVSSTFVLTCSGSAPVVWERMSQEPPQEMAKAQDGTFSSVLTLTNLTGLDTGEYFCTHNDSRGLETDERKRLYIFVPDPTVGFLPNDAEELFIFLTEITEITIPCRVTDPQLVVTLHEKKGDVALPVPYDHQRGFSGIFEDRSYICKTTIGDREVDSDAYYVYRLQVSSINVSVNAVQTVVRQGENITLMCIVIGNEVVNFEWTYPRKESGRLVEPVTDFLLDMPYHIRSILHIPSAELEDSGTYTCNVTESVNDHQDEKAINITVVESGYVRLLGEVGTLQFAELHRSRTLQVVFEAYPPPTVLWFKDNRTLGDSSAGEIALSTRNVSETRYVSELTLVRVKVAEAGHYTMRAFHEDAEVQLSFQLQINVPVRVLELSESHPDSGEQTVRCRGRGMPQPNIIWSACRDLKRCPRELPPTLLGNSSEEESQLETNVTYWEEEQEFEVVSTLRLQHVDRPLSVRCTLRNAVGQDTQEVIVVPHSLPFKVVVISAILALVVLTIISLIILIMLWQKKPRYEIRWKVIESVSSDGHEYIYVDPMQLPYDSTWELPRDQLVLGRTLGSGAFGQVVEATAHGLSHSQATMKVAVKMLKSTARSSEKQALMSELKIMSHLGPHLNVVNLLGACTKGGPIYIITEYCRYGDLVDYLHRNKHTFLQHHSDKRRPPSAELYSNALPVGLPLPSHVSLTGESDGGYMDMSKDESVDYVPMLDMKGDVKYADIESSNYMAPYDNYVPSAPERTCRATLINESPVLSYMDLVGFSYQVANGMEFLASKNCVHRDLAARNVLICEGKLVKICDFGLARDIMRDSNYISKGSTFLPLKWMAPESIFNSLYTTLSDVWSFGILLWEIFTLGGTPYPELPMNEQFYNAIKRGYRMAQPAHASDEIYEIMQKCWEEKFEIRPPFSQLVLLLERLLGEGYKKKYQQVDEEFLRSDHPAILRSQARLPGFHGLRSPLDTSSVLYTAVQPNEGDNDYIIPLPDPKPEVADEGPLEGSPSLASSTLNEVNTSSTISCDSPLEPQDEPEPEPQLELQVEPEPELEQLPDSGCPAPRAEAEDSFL
T1 sequence (O43683 whole entry): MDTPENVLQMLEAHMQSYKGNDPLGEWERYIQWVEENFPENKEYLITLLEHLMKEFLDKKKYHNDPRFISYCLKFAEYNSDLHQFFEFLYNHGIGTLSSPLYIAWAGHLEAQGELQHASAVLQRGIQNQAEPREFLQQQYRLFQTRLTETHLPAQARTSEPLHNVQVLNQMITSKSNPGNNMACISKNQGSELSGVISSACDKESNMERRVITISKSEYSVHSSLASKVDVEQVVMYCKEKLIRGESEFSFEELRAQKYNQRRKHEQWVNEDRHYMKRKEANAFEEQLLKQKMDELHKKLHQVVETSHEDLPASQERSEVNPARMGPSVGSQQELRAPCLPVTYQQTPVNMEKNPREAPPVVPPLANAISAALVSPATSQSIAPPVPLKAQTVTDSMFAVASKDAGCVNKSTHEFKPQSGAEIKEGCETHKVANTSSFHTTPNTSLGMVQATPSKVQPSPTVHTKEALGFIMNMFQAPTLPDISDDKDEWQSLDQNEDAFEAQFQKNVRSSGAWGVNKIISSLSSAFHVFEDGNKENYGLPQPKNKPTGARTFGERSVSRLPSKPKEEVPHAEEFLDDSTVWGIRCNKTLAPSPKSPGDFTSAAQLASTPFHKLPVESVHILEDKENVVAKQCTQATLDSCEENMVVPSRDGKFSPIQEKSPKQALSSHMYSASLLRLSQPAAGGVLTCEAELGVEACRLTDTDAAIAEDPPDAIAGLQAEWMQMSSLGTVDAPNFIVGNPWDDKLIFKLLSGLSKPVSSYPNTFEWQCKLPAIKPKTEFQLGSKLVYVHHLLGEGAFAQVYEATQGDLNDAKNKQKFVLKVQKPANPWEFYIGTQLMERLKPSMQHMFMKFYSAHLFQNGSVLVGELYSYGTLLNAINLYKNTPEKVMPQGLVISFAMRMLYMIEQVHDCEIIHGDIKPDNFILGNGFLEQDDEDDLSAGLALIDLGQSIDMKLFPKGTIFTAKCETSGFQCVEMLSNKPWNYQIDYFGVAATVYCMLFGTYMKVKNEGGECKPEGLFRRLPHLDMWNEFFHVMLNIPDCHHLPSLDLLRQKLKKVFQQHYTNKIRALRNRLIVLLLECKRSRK

Row | SMILES | remaining binding at 1 µM [1] [%] | remaining binding at 1 µM [2] [%] | remaining binding at 1 µM [3] [%] | remaining binding at 1 µM [4] [%] | remaining binding at 1 µM [5] [%] | remaining binding at 1 µM [6] [%] | remaining binding at 1 µM [7] [%] | remaining binding at 1 µM [8] [%] | remaining binding at 1 µM [9] [%] | remaining binding at 1 µM [10] [%] | remaining binding at 1 µM [11] [%] | remaining binding at 1 µM [12] [%]
1 | Cc1ccc(NC(=O)C2(C(=O)Nc3ccc(F)cc3)CC2)cc1C#Cc1cnc2c(Nc3cnn(C(C)C)c3)cccn12 [Example 78] | 100 | 100 | 100 | 100 | 84 | 83 | 78 | 87 | 14 | 0 | 100 | 88
2 | Cc1cn(-c2cc(NC(=O)c3ccc(C)c(C#Cc4cnc5c(Nc6cnn(C)c6)cccn45)c3)cc(C(F)(F)F)c2)cn1 [Example 12, 4-methyl-N-(3-(4-methyl-1H-imidazol-1-yl)-5-(trifluoromethyl)phenyl)-3-((8-((1-methyl-1H-pyrazol-4-yl)amino)imidazo[1,2-a]pyridin-3-yl)ethynyl)benzamide] | 100 | 83 | 100 | 1 | 16 | 95 | 100 | 87 | 1 | 1 | 95 | 10
3 | Cc1ccc(C(=O)Nc2ccc(CN3CCN(C)CC3)c(C(F)(F)F)c2)cc1C#Cc1cnc2c(Nc3cnn(C)c3)cccn12 [Example 1, 4-methyl-3-((8-((1-methyl-1H-pyrazol-4-yl)amino)imidazo[1,2-a]pyridin-3-yl)ethynyl)-N-(4-((4-methylpiperazin-1-yl)methyl)-3-(trifluoromethyl)phenyl)benzamide] | 84 | 100 | 85 | 0 | 3 | 85 | 97 | 100 | 0 | 0 | 90 | 0

Reference: patent US10870647B2, “Imidazopyridine derivative, method for preparing same, and pharmaceutical composition containing same as active ingredient for preventing or treating cancer” (DAEGU-GYEONGBUK MEDICAL INNOVATION FOUNDATION, priority 2016, dated 2020)
